Source: US10106519B2, “3-phenyl-7-hydroxy-isocoumarins as macrophage migration inhibitory factor (MIF) inhibitors” (The Provost, Fellows, Foundation Scholars, & the Other …, priority 2014, dated 2018)
“Also recorded” adds a separate entry of the source.

Columns and labels:
MIF tautomerase = molecular target: T1, MIF tautomerase (Homo sapiens, UniProt P14174); experiment: MIF tautomerase inhibition assay; assay type: biochemical; details: panel of 25 potential inhibitors, 100 μM (FIG. 1, FIG. 3)
T1 construct: host or cells: E. coli BL21
T1 sequence (P14174 2-115 limits assumed): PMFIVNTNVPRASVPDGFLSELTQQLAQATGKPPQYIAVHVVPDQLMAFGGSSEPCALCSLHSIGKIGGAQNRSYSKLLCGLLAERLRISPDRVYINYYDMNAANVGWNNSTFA
Method: Human recombinant MIF was purified as per Bernhagen et al. (Biochemistry, 1994. 33(47): p. 14144-55). Briefly, BL21 E. coli cells expressing the pET11b-MIF construct were grown to an absorbance at 600 nm (OD) of […]. Isopropyl 1-thio-P-D-galactopyranoside (IPTG) (Sigma—cat no. 16758) was added to a final concentration of 1 mM to induce expression of the MIF gene and incubated for another 3 hours. Bacteria were then harvested by centrifugation and the cell pellets were then frozen. Protein purification was then out sourced to Scottish Biomedical, where the bacterial pellets were thawed and resuspended in 3 ml of Tris-buffered saline. The bacteria were then lysed by adding an equivalent number of glass beads and vortexing strongly for 10 minutes. Glass beads were removed by centrifugation at 1000 g for 10 minutes and the bacterial extract was centrifuged at 1000 g for a further 30 minutes. The supernatant was then sterile-filtered through a […] membrane filter and put through a MONO Q anion exchange chromatography column. MIF was eluted using Tris-buffered saline in the first flow-through fractions and pooled and placed on ice. These pooled fractions were then applied to a C8-SepPak reverse phase column. Unbound material was eluted by washing with water and 20% acetonitrile/water. MIF was then eluted using 6 column volumes of 60% acetonitrile/water. This sample was then renatured by dissolving MIF at a concentration of […] in 20 mM sodium phosphate buffer containing 8M urea and 5 mM DTT and dialysed against 20 mM sodium phosphate buffer. […]
L-dopachrome methyl ester was prepared at 2.4 mM through oxidation of L-3,4-dihydroxyphenylalanine methyl ester with sodium periodate. The solution was mixed well and placed at room temperature for 5 minutes before being placed on ice in the dark. 100 ng of rMIF was added to each of the Tautomerase Inhibitors or ISO-1 at a number of concentrations (1, 50 and 100 μM) with substrate. The decrease in absorbance was measured with a spectrophotometer at 475 nm every 10 seconds for 10 minutes.
The rate of the reaction of rMIF and substrate alone was measured over time at 475 nm. This was compared to the rate of this reaction with the addition of 100 μM of each of the inhibitors. Inhibition was calculated as the percentage in the reduction of the rate of change with the addition of the inhibitor averaged over five minutes.

[1] = tested on: LPS induced TNF-α production; experiment: Inhibition of LPS induced TNF-α production in RAW 264.7 macrophage cells (ELISA); assay type: cell-based, mouse
Method: RAW 264.7 macrophage cells were plated at 1×10^5/ml in 450 μl of medium in a 48 well plate. 16 hours later cells were treated with ISO-1 or Tautomerase Inhibitors at a final concentration of 10, 50 or 100 μM for 30 minutes before stimulation with 100 ng/ml LPS. Supernatants were collected after 20 hours for determination of TNF-α levels. TNF-α levels were determined using a TNF-α specific ELISA (CAT # DY410 R&D Syst).
96 well plates were coated with 50 μl of Capture Antibody ([…]) in PBS and sealed and incubated overnight at 4° C. Plates were then washed three times in 0.05% PBS Tween and plates blotted. Plates were blocked by adding 150 μl of 1% BSA in PBS (Gibco—cat no. 14190-094) to each well and incubated at room temperature for 2 hours. Plates were washed again as previously described. 50 μl of sample or standard was added to each well and incubated for overnight at 4° C. Plates were then washed again as described. 50 μl of the detection Antibody (200 ng/ml) in 1% BSA in PBS was added to each well and incubated for 2 hours at room temperature. Plates were then washed again as described. 50 μl of working concentration of Streptavidin—HRP was added to each well and plates were covered and incubated for 20 minutes at room temperature. 50 μl of substrate solution (One OPD tablet and one urea hydrogen peroxide/buffer tablet were dissolved in 20 ml of water to yield a ready to use buffered solution, Sigma—cat no. 9187-50) was added to each well and incubated for 20 minutes at room temperature. 25 μl of 2N H2SO4 was added to each well to stop the reaction. The optical density of each well was then measured with a spectrophotometer at 450 nm.
Initially the panel of 25 novel potential tautomerase inhibitors was screened in an in-vitro system. In order to do this we exploited the fact that MIF is needed for optimal LPS induced TNF-α production. We therefore reasoned that our potential TIs should be able to inhibit LPS induced TNF-α in RAW macrophage murine cells. RAW macrophage murine cells were plated at 37° C. in a humidified 5% CO2 incubator. 16 hours later the cells were pre-treated with each of the inhibitors at concentration of 100, 50 or 10 μM for 30 minutes 100 ng/ml of LPS was then added to the cells and supernatants were collected after 16 hours and analysed for TNF-α production by ELISA.

[2] = tested on: LPS mediated PGE-2 production; experiment: PGE-2 production in LPS treated RAW macrophage cells (ELISA); assay type: cell-based, murine; details: 100 μM inhibitor, 100 ng/ml LPS (FIG. 4)
Method: Raw macrophage murine cells were plated at a cell density of 1×10^5 and pre-treated with 100 μM of each of the inhibitors […] for 30 minutes at 37° C. in a humidified 5% CO2 incubator. Raw macrophage cells were then treated with 100 ng/ml of LPS and supernatants were collected after 16 hours at 37° C. in a humidified 5% CO2 incubator and analysed for PGE-2 production. Levels of PGE-2 were measured by ELISA. (CAT # KGE004 R&D Syst).

## Cc1ccccc1-c1cc2ccccc2c(=O)o1 [TI 19]
MIF tautomerase
  inhibition of MIF tautomerase enzymatic activity, in words: highest percentage inhibition of MIF enzymatic activity; also recorded: significantly more potent than the commercially available small molecule MIF inhibitor ISO-1
[1]; 10 μM inhibitor (FIG. 2C)
  reduction of TNF-α production, in words: more effective than ISO-1
[1]; 50 μM inhibitor (FIG. 2B)
  reduction of TNF-α production, in words: more effective than the commercial standard ISO-1
[1]; concentration not given
  reduction of TNF-α production, in words: more effective at reducing TNF-α than the commercially available ISO-1; also recorded: reduction in TNF-α production
[2]
  reduction of LPS mediated PGE-2 production, in words: significantly reduces; also recorded: greater reduction in PGE-2 than ISO-1; also recorded: reduced PGE-2 levels to comparable levels in untreated cells
